How the values were obtained:
[1] = biological target: human AT1R (Homo sapiens (Human), UniProt P30556); assay: Counterscreen radioligand binding assay, displacement of 125I-[Sar1, Ile8]-Angiotensin II, hAT1R WT; conditions: for inhibition at 1 µM / inhibition at 10 µM: 125I-[Sar1, Ile8]-Ang II, semi-quantitative score; for inhibition at 1 µM: compound at 1 μM, read-out: % Displaced radioligand at 1 μM; for inhibition at 10 µM: compound at 10 μM, read-out: % Displaced radioligand at 10 μM; for IC50: HEK-293 cell membranes, read-out: Binding affinity On hAT1R IC50
Sequence of human AT1R (P30556 whole entry): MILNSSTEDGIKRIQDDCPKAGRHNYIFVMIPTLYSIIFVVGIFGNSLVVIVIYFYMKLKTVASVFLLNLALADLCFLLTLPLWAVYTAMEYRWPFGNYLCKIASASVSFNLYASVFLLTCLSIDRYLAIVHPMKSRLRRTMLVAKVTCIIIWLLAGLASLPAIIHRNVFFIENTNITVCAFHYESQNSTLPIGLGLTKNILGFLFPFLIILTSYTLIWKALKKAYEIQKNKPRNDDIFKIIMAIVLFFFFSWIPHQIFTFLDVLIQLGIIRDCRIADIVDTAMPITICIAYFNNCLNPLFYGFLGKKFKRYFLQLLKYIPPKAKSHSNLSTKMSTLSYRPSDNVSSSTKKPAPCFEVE
Summary of the method: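 Compounds displaced 0.05 nM 125I-[Sar1, Ile8]-Ang II from human AT1R in HEK-293 membranes (1 h, 25° C; Tris/MgCl2/EDTA/BSA buffer, pH 7.4). Readout was filtration and scintillation counting, with non-specific binding set by 10 μM [Sar1]-Ang II. Values are % displacement at 1 μM and […], or IC50 from eight-point four-parameter fits.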

[2] = biological target: CYP2C9 (Homo sapiens (Human), UniProt P11712); assay: CYP inhibition, CYP2C9; type: in vitro ADME; conditions: test compound at 10 μM, read-out: % Inhibition (PIN) 2C9
Sequence of CYP2C9 (P11712 whole entry): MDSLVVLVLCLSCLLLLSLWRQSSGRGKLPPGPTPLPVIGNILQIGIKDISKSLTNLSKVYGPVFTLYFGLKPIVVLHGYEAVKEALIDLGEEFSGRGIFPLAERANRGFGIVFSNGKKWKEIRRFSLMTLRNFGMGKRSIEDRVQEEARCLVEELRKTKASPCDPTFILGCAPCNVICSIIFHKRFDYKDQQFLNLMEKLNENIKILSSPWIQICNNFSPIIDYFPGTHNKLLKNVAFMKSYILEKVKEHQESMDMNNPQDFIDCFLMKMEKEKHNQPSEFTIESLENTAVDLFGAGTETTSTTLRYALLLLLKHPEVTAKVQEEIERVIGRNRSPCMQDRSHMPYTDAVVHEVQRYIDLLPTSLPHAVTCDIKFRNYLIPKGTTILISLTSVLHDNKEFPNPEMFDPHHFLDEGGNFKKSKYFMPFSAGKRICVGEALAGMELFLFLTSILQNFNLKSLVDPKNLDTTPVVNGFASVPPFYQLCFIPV
Description: The aim of this assay is to determine the inhibitory potential of a test compound. A major concern for drug-drug-interaction is cytochrome P450 inhibition. Reversible CYP inhibition was determined in human liver microsomes using specific probe substrates for human cytochrome P450 isoenzymes CYP1A2, 2C9, 2C19, 2D6 and 3A4.
The potential for CYP450 inhibition was assessed by performing in vitro inhibition studies using fluorogenic CYP450 substrates with the corresponding CYP450 enzymes and NADPH regeneration system (Vivid CYP450 Screening Kits) with some minor changes to the manufacturer's protocols. The fluorescent signal produced from reaction is directly proportional to the cytochrome P450 activity. In the cases when tested compounds interfere with the CYP450 enzyme-substrate reaction, the fluorescent signal decreases. […] After 10 minutes pre-incubation, the enzymatic reaction was initiated by the addition of a mix of NADPH and the appropriate CYP450 substrates. The plate was incubated for the desired reaction time (25 min for CYP1A2, CYP2C9, CYP2D6, and CYP3A4, 60 min for CYP2C19) after which Stop Reagent was added and fluorescence measured using SpectraMax Paradigm Multi-Mode Microplate Reader. All test points were performed in quadruplicates at concentration 10 μM (1% DMSO).
A 10 mM stock solution of test compound is prepared in methanol. This stock is further serially diluted 1:3 in methanol and then added to mixture containing 50 mM potassium phosphate buffer pH7.4, human liver microsomes (BD Gentest) and probe substrate. […]
After incubation at 37° C., the reaction (aliquot of 50 μL) is terminated with 150 μL CH3CN:MeOH (2:1) solution with internal standard (warfarin for 2C9, diclofenac for all other tested isoforms). Samples are centrifuged and the supernatant fractions analyzed by LC-MS/MS.
The instrument responses (ratio of test compound and internal standard peak areas) are referenced to those for solvent controls (assumed as 100%) in order to determine the percentage reduction in probe metabolism. Percent of control activity vs. concentration plots are generated and fitted using GraphPad Prism software to generate IC50.

[3] = Metabolic stability in hepatocytes, rat; type: in vitro ADME; conditions: hepatocytes (cryopreserved), read-out: Rat Clint (μL/min/10^6 cells)
Description: The aim of this assay is to determine the metabolic stability of the compound in hepatocytes (cryopreserved) of different species (mouse CD1, rat Sprague Dawley, dog Beagle). Low hepatocyte stability may result in the formation of unwanted metabolites, high clearance, and therefore is not desirable. The decrease in parent was assessed by measuring the percentage remaining by LC-MS/MS analysis. The batches of hepatocytes were tested for quality control using Testosterone, Umbelliferone and Caffeine as reference compounds.
A 10 mM stock solution of test compound in DMSO was first diluted in DMSO to 3 mM, and then in modified Krebs-Henseleit buffer (Sigma, K3753) to 5 μM. This compound dilution was added to a suspension of pooled cryopreserved hepatocytes (BioIVT) at 37° C. under gentle shaking. Final reaction conditions were: 1 μM of test compound, <0.1% DMSO, 0.5 million viable hepatocytes/mL, and 75 μL incubation volume.
After 0, 10, 20, 45, 90, 120 and 180 min of incubation, the reaction was terminated with 3 volumes of MeCN:MeOH (2:1) containing diclofenac as analytical internal standard. Samples were mixed, centrifuged and the supernatant analyzed by LC-MS/MS (systems API4000). The instrument responses (ratios of test compound and internal standard peak areas) were referenced to the zero time point samples (considered as 100%) in order to determine the percentage of compound remaining. Plots of percentage compound remaining were used to determine the intrinsic clearance in the hepatocyte incubations.
Testosterone (1 μM) and Umbelliferone (1 μM) and Caffeine (1 μM) were used as reference compounds, being unstable and stable compounds respectively. If the hepatocyte stability values for these controls are not in the range determined by the historical data, the assay is not validated.

inhibition at 1 µM [1]	inhibition at 10 µM [1]	IC50 [1]	inhibition at 10 µM [2]	hepatocyte CLint [3]	SMILES
< 30%	< 30%	49.7 µM	–	–	CC(C)Cc1ccc(-c2nn[nH]n2)c(N2CCN(Cc3nc4ccccc4n3C)CC2)c1 [Compound A-20, 2-[[4-[5-isobutyl-2-(2H-tetrazol-5-yl)-phenyl]piperazin-1-yl]methyl]-1-meth-yl-benzimidazole]
< 30%	< 30%	–	43%	–	Cc1cnc(CN2CCN(c3cc(CC(C)C)cc(F)c3-c3nn[nH]n3)C[C@@H]2C)s1 [Compound A-223, 2-[[(2S)-4-[3-fluoro-5-isobutyl-2-(2H-tetrazol-5-yl)phenyl]-2-methyl-piperazin-1-yl]methyl]-5-methyl-thiazole]
< 30%	< 30%	–	73%	–	CC(C)Cc1ccc(-c2nn[nH]n2)c(N2CCN(Cc3nc4ccccc4c(=O)[nH]3)CC2)c1 [Compound A-31, 2-[[4-[5-isobutyl-2-(2H-tetrazol-5-yl)phenyl]piperazin-1-yl]methyl]-3H-quinazolin-4-one]
< 30%	< 30%	–	36.6%	–	CC(C)Oc1ccc(-c2nn[nH]n2)c(N2CCN(Cc3nc4ccccc4n3C)CC2)c1 [Compound A-24, 2-[[4-[5-isopropoxy-2-(2H-tetrazol-5-yl)phenyl]piperazin-1-yl]methyl]-1-methyl-benzimidazole]
< 30%	30 to 50%	17.5 µM	51%	8.7 µL/min/1e6 cells	CC(C)Cc1cc(F)c(-c2nn[nH]n2)c(N2CCN(Cc3ccccn3)[C@@H](C)C2)c1 [Compound A-217, (2S)-4-[3-fluoro-5-isobutyl-2-(2H-tetrazol-5-yl)phenyl]-2-methyl-1-(2-pyridylmethyl)piperazine]
< 30%	< 30%	–	3.37%	–	CC(C)Cc1ccc(-c2nn[nH]n2)c(N2CCN(Cc3nccn3C)CC2)c1 [Compound A-83, 1-[5-isobutyl-2-(2H-tetrazol-5-yl)-phenyl]-4-[(1-meth-ylimidazol-2-yl)-methyl]piperazine]
< 30%	< 30%	–	15.8%	–	CC(C)Cc1ccc(-c2nn[nH]n2)c(N2CCN(Cc3ncccn3)CC2)c1 [Compound A-88]
< 30%	< 30%	–	62.4%	–	CC(C)Oc1ccc(-c2nn[nH]n2)c(N2CCN(Cc3nc4ccccc4c(=O)[nH]3)CC2)c1 [Compound A-32]
< 30%	< 30%	–	32.1%	–	Cc1cc(CN2CCN(c3cc(CC(C)C)ccc3-c3nn[nH]n3)CC2)no1 [Compound A-82, 3-[[4-[5-isobutyl-2-(2H-tetrazol-5-yl)phenyl]piperazin-1-yl]methyl]-5-methyl-isoxazole]
< 30%	< 30%	–	46.1%	–	CCCCNC(=O)NS(=O)(=O)c1ccc(C(F)(F)F)cc1N1CCN(Cc2nc3ccccc3n2C)CC1 [Compound A-10, 1-butyl-3-[2-[4-[(1-methylbenzimidazol-2-yl)methyl]piperazin-1-yl]-4-(trifluoromethyl)phenyl]sulfonyl-urea]
< 30%	< 30%	–	56.2%	–	CC(C)Cc1ccc(-c2nn[nH]n2)c(N2CCN(Cc3ccnn3C)CC2)c1 [Compound A-84, 1-[5-isobutyl-2-(2H-tetrazol-5-yl)phenyl]-4-[(1-methylpyrazol-5-yl)methyl]piperazine]
< 30%	< 30%	36.5 µM	–	–	CCCCOC(=O)NS(=O)(=O)c1ccc(C(F)(F)F)cc1N1CCN(Cc2nc3ccccc3n2C)CC1 [Compound A-09, butyl N-[2-[4-[(1-methylbenzimidazol-2-yl)methyl]piperazin-1-yl]-4-(trifluoromethyl)phenyl]sulfonylcarbamate]
< 30%	< 30%	–	17.2%	2 µL/min/1e6 cells	CC(C)Cc1cc(F)c(-c2nn[nH]n2)c(N2CCN(Cc3cccnn3)C(C)C2)c1 (stereo not shown) [Compound A-173, 3-[[4-[3-fluoro-5-isobutyl-2-(2H-tetrazol-5-yl)phenyl]-2-methyl-piperazin-1-yl]methyl]pyridazine]
< 30%	< 30%	55 µM	–	–	CC(C)Oc1ccc(-c2nn[nH]n2)c(N2CCN(Cc3nc4ccccc4s3)CC2)c1 [Compound A-51, 2-[[4-[5-isoprop-oxy-2-(2H-tetrazol-5-yl)phenyl]piper-azin-1-yl]methyl]-1,3-benzothiazole]
< 30%	< 30%	–	–	1 µL/min/1e6 cells	CCC1CN(Cc2cccnn2)CCN1c1cc(CC(C)C)cc(F)c1-c1nn[nH]n1 (stereo not shown) [Compound A-181, 3-[[3-ethyl-4-[3-fluoro-5-isobutyl-2-(2H-tetrazol-5-yl)phenyl]piperazin-1-yl]methyl]pyridazine]
< 30%	< 30%	–	28.4%	–	CC(C)Cc1ccc(-c2nn[nH]n2)c(N2CCN(Cc3cccnn3)CC2)c1 [Compound A-90, 3-[[4-[5-isobutyl-2-(2H-tetrazol-5-yl)phenyl]piperazin-1-yl]methyl]pyridazine]
< 30%	< 30%	–	20.9%	10.5 µL/min/1e6 cells	CC(C)Cc1cc(F)c(-c2nn[nH]n2)c(N2CCN(Cc3cccnn3)[C@@H](C)C2)c1 [Compound A-174, 3-[[(2S)-4-[3-fluoro-5-isobutyl-2-(2H-tetrazol-5-yl)phenyl]-2-methyl-piperazin-1-yl]methyl]pyridazine]
< 30%	< 30%	–	–	2.6 µL/min/1e6 cells	CC(C)Cc1cc(F)c(-c2nn[nH]n2)c(N2CC(C)N(Cc3cccnn3)CC2C)c1 (stereo not shown) [Compound A-183, 3-[[4-[3-fluoro-5-isobutyl-2-(2H-tetrazol-5-yl)phen-yl]-2,5-dimethyl-piperazin-1-yl]-methyl]pyridazine]
< 30%	< 30%	–	–	–	CCCCNC(=O)NS(=O)(=O)c1ccc(C)cc1N1CCN(Cc2nc3ccccc3n2C)CC1 [Compound A-12, 1-butyl-3-[4-methyl-2-[4-[(1-methylbenzimidazol-2-yl)methyl]piperazin-1-yl]phenyl]sulfonyl-urea]

SMILES	inhibition at 1 µM [1]	inhibition at 10 µM [1]	IC50 [1]	inhibition at 10 µM [2]	hepatocyte CLint [3]
CCC1CN(c2cc(CC(C)C)cc(F)c2-c2nn[nH]n2)CCN1Cc1cccnn1 (stereo not shown) [Compound A-178, 3-[[2-ethyl-4-[3-fluoro-5-isobutyl-2-(2H-tetrazol-5-yl)phenyl]piperazin-1-yl]methyl]pyridazine]	< 30%	< 30%	–	45.6%	0.2 µL/min/1e6 cells

Reference: US20240368133A1, “Compounds for the Treatment of Pain, in Particular, Neuropathic Pain, and/or Other Diseases or Disorders that are Associated with AT2R and/or AT2R Mediated Signaling” (Confo Therapeutics N.V., priority 2021, published 2024)
